Test results: patent publication US11998539B2, “Substituted aminoquinolones as DGKalpha inhibitors for immune activation” (Bayer Aktiengesellschaft, priority 2019, dated 2024)
pIC50: −log10 of the molar value.

biological target: DGKα (Homo sapiens (Human), UniProt P23743); assay: Human DGKα kinase activity inhibition assay (ADP-Glo); type: biochemical; details: recombinant full-length human DGKα, 55 μM ATP, 7 μM 1,2-dioleoyl-sn-glycerol, read-out: IC50 values of examples in in vitro human DGKa kinase activity inhibition assays
Sequence (P23743 other isoform, or with tags, fused parts or gaps): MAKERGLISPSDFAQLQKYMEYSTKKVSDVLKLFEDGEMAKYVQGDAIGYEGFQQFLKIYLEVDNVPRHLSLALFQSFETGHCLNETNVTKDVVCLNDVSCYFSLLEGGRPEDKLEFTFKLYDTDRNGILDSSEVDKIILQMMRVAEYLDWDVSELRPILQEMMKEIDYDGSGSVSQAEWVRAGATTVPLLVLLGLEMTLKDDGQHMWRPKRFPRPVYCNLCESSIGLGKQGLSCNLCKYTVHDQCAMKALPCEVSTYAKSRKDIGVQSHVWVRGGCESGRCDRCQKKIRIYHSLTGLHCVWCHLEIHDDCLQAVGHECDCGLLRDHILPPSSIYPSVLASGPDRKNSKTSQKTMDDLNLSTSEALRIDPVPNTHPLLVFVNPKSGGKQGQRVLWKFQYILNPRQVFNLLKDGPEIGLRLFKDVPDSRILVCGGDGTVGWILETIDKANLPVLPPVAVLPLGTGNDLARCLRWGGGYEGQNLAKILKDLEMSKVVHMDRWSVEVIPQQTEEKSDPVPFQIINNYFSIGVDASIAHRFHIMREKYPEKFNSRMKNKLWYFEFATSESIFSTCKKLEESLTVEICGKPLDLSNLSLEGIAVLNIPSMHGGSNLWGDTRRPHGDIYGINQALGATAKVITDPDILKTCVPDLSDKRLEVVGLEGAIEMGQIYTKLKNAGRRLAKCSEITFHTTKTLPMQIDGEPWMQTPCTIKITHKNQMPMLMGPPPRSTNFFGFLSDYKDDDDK
How it was run: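 Activity was measured as ADP production, detected by luciferase luminescence after removal of unused ATP. The enzyme was baculovirus-expressed full-length human DGKα with a C-terminal FLAG tag. The substrate was 1,2-dioleoyl-sn-glycerol in detergent micelles, and compounds came from 100× DMSO solutions.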

SMILES	pIC50
Cn1c(=O)c(C#N)c(N2CCC(C)(c3nnc(-c4cccc(Cl)c4)o3)CC2)c2ccccc21 [Example 355, 4-{4-[5-(3-chlorophenyl)-1,3,4-oxadiazol-2-yl]-4-methylpiperidin-1-yl}-1-methyl-2-oxo-1,2-dihydroquinoline-3-carbonitrile]	6.85
C=C(c1cc2c(N3CCC(c4nc5cc(C)ccc5o4)CC3)c(C#N)c(=O)n(C)c2cc1OC1CCOC1)C(F)(F)F (racemic) [Example 433, (rac)-1-methyl-4-[4-(5-methyl-1,3-benzoxazol-2-yl)piperidin-1-yl]-2-oxo-7-[(oxolan-3-yl)oxy]-6-(3,3,3-trifluoroprop-1-en-2-yl)-1,2-dihydroquinoline-3-carbonitrile]	8.07
COc1ccccc1C1CCN(c2c(C#N)c(=O)n(C)c3ccccc23)CC1 [Example 52, 4-[4-(2-methoxyphenyl)piperidin-1-yl]-1-methyl-2-oxo-1,2-dihydroquinoline-3-carbonitrile]	8.06
CC(C)c1ccc2oc(C3(C)CCN(c4c(C(N)=O)c(=O)n(C)c5ccccc45)CC3)nc2c1 [Example 103, 1-methyl-4-{4-methyl-4-[5-(propan-2-yl)-1,3-benzoxazol-2-yl]piperidin-1-yl}-2-oxo-1,2-dihydroquinoline-3-carboxamide]	9.22
CCOc1ccc2c(c1)c(N1CCC(c3nc4cc(C)ccc4o3)CC1)c(C(N)=O)c(=O)n2C [Example 502, 6-ethoxy-1-methyl-4-[4-(5-methyl-1,3-benzoxazol-2-yl)piperidin-1-yl]-2-oxo-1,2-dihydroquinoline-3-carboxamide]	6.92
CC[C@H](C)c1ccc2c(N3CCC(C)(c4nc5cc(C)ccc5o4)CC3)c(C#N)c(=O)n(C)c2c1 [Example 266, 7-[(2S)-butan-2-yl]-1-methyl-4-[4-methyl-4-(5-methyl-1,3-benzoxazol-2-yl)piperidin-1-yl]-2-oxo-1,2-dihydroquinoline-3-carbonitrile]	7.28
Cc1c(C#N)cccc1C1CCN(c2c(C#N)c(=O)n(C)c3ccccc23)CC1 [Example 64, 4-[4-(3-cyano-2-methylphenyl)piperidin-1-yl]-1-methyl-2-oxo-1,2-dihydroquinoline-3-carbonitrile]	7.14
COc1ccc2c(c1)c(N1CCC(c3nc(-c4ccccc4C)no3)CC1)c(C#N)c(=O)n2C [Example 438, 6-methoxy-1-methyl-4-{4-[3-(2-methylphenyl)-1,2,4-oxadiazol-5-yl]piperidin-1-yl}-2-oxo-1,2-dihydroquinoline-3-carbonitrile]	7.51
Cn1c(=O)c(C#N)c(N2CCC(c3cccc(Br)c3)CC2)c2ccccc21 [Example 85]	7.27
Cc1ccc2oc(C3(C)CCN(c4c(C#N)c(=O)n(C)c5c(OC6COC6)cccc45)CC3)nc2c1 [Example 253, 1-methyl-4-[4-methyl-4-(5-methyl-1,3-benzoxazol-2-yl)piperidin-1-yl]-8-[(oxetan-3-yl)oxy]-2-oxo-1,2-dihydroquinoline-3-carbonitrile]	7.85
Cc1ccc2oc(C3CCN(c4c(C(N)=O)c(=O)n(C)c5cc(F)c(C#N)cc45)CC3)nc2c1 [Example 564, 6-cyano-7-fluoro-1-methyl-4-[4-(5-methyl-1,3-benzoxazol-2-yl)piperidin-1-yl]-2-oxo-1,2-dihydroquinoline-3-carboxamide]	8.48
Cn1c(=O)c(C#N)c(N2CCC(c3nc4ccccc4o3)CC2)c2cc(F)ccc21 [Example 206, 4-[4-(1,3-benzoxazol-2-yl)piperidin-1-yl]-6-fluoro-1-methyl-2-oxo-1,2-dihydroquinoline-3-carbonitrile]	9.10
Cc1ccccc1-n1ccc(C2CCN(c3c(C#N)c(=O)n(C)c4ccccc34)CC2)n1 [Example 367, 1-methyl-4-{4-[1-(2-methylphenyl)-1H-pyrazol-3-yl]piperidin-1-yl}-2-oxo-1,2-dihydroquinoline-3-carbonitrile]	7.68
Cn1c(=O)c(C#N)c(N2CCC(c3cccc4cnccc34)CC2)c2ccccc21 [Example 78, 4-[4-(isoquinolin-5-yl)piperidin-1-yl]-1-methyl-2-oxo-1,2-dihydroquinoline-3-carbonitrile]	6.98
Cn1c(=O)c(C#N)c(N2CCC(c3ccc(-c4ccccc4)cc3)CC2)c2ccccc21 [Example 53, 4-[4-([1,1′-biphenyl]-4-yl)piperidin-1-yl]-1-methyl-2-oxo-1,2-dihydroquinoline-3-carbonitrile]	7.89
Cc1ccc2cc(C3CCN(c4c(C#N)c(=O)n(C)c5ccccc45)CC3)ccc2n1 [Example 371, 1-methyl-4-[4-(2-methylquinolin-6-yl)piperidin-1-yl]-2-oxo-1,2-dihydroquinoline-3-carbonitrile]	7.85
Cn1c(=O)c(C#N)c(N2CCC(c3nc4ccccc4o3)CC2)c2ccc(F)cc21 [Example 236, 4-[4-(1,3-benzoxazol-2-yl)piperidin-1-yl]-7-fluoro-1-methyl-2-oxo-1,2-dihydroquinoline-3-carbonitrile]	8.37

SMILES	pIC50
Cc1ccc2oc(C3(C)CCN(c4c(C#N)c(=O)n(C)c5cc(C#N)ccc45)CC3)nc2c1 [Example 249, 1-methyl-4-[4-methyl-4-(5-methyl-1,3-benzoxazol-2-yl)piperidin-1-yl]-2-oxo-1,2-dihydroquinoline-3,7-dicarbonitrile]	8.14
COc1cccc(-c2csc(C3CCN(c4c(C(N)=O)c(=O)n(C)c5ccccc45)CC3)n2)c1 [Example 476, 4-{4-[4-(3-methoxyphenyl)-1,3-thiazol-2-yl]piperidin-1-yl}-1-methyl-2-oxo-1,2-dihydroquinoline-3-carboxamide]	8.15
CCC1(c2nc3ccccc3o2)CCN(c2c(C#N)c(=O)n(C)c3ccccc23)CC1 [Example 106, 4-[4-(1,3-benzoxazol-2-yl)-4-ethylpiperidin-1-yl]-1-methyl-2-oxo-1,2-dihydroquinoline-3-carbonitrile]	9.05
Cn1c(=O)c(C#N)c(N2CCC(O)(c3cccc(C(F)(F)F)c3)CC2)c2ccccc21 [Example 152, 4-{4-hydroxy-4-[3-(trifluoromethyl)phenyl]piperidin-1-yl}-1-methyl-2-oxo-1,2-dihydroquinoline-3-carbonitrile]	5.97
Cn1c(=O)c(C#N)c(N2CCC(c3cc[nH]n3)CC2)c2ccccc21 [Example 322, 1-methyl-2-oxo-4-[4-(1H-pyrazol-3-yl)piperidin-1-yl]-1,2-dihydroquinoline-3-carbonitrile]	6.62
Cn1c(=O)c(C#N)c(N2CCC(c3nc4ccccc4o3)CC2)c2ccc(Br)cc21 [Example 27, 4-[4-(1,3-benzoxazol-2-yl)piperidin-1-yl]-7-bromo-1-methyl-2-oxo-1,2-dihydroquinoline-3-carbonitrile]	8.70
Cn1c(=O)c(C#N)c(N2CCC(c3nc4cc(OCC5CCCO5)ccc4o3)CC2)c2ccccc21 (stereo not drawn) [Example 387, 1-methyl-2-oxo-4-(4-{5-[(oxolan-2-yl)methoxy]-1,3-benzoxazol-2-yl}piperidin-1-yl)-1,2-dihydroquinoline-3-carbonitrile]	8.05
COc1ccc(-c2noc(C3CCN(c4c(C#N)c(=O)n(C)c5ccccc45)CC3)n2)cc1 [Example 349, 4-{4-[3-(4-methoxyphenyl)-1,2,4-oxadiazol-5-yl]piperidin-1-yl}-1-methyl-2-oxo-1,2-dihydroquinoline-3-carbonitrile]	7.82
Cc1ccc2oc(C3(C)CCN(c4c(C#N)c(=O)n(C)c5ccc(N6C[C@H](O)CC6=O)cc45)CC3)nc2c1 [Example 277, 6-[(4R)-4-hydroxy-2-oxopyrrolidin-1-yl]-1-methyl-4-[4-methyl-4-(5-methyl-1,3-benzoxazol-2-yl)piperidin-1-yl]-2-oxo-1,2-dihydroquinoline-3-carbonitrile]	6.61
Cn1c(=O)c(C#N)c(N2CCC(c3nc4c(F)cccc4o3)CC2)c2ccccc21 [Example 26, 4-[4-(4-fluoro-1,3-benzoxazol-2-yl)piperidin-1-yl]-1-methyl-2-oxo-1,2-dihydroquinoline-3-carbonitrile]	8.00
Cc1ccc2oc(C3CCN(c4c(C(N)=O)c(=O)n(C)c5ccc(OCC6CC6)cc45)CC3)nc2c1 [Example 505, 6-(cyclopropylmethoxy)-1-methyl-4-[4-(5-methyl-1,3-benzoxazol-2-yl)piperidin-1-yl]-2-oxo-1,2-dihydroquinoline-3-carboxamide]	6.57
Cn1c(=O)c(C#N)c(N2CCC(c3nc4ccc(F)cc4o3)CC2)c2ccccc21 [Example 4, 4-[4-(6-fluoro-1,3-benzoxazol-2-yl)piperidin-1-yl]-1-methyl-2-oxo-1,2-dihydroquinoline-3-carbonitrile]	8.55
COCc1ccc2c(N3CCC(C)(c4nc5cc(C)ccc5o4)CC3)c(C#N)c(=O)n(C)c2c1 [Example 212, 7-(methoxymethyl)-1-methyl-4-[4-methyl-4-(5-methyl-1,3-benzoxazol-2-yl)piperidin-1-yl]-2-oxo-1,2-dihydroquinoline-3-carbonitrile]	9.52
Cn1c(=O)c(C#N)c(N2CCC(C)(c3nc4ccccc4o3)CC2)c2cccc(Cl)c21 [Example 230, 4-[4-(1,3-benzoxazol-2-yl)-4-methylpiperidin-1-yl]-8-chloro-1-methyl-2-oxo-1,2-dihydroquinoline-3-carbonitrile]	7.08
Cc1ccc2oc(C3(C)CCN(c4c(C#N)c(=O)n(C)c5c(Br)cccc45)CC3)nc2c1C(F)(F)F [Example 233, 8-bromo-1-methyl-4-{4-methyl-4-[5-methyl-4-(trifluoromethyl)-1,3-benzoxazol-2-yl]piperidin-1-yl}-2-oxo-1,2-dihydroquinoline-3-carbonitrile]	5.90
Cc1ccc2c(N3CCC(c4nc5ccccc5o4)CC3)c(C(N)=O)c(=O)n(C)c2c1 [Example 314, 4-[4-(1,3-benzoxazol-2-yl)piperidin-1-yl]-1,7-dimethyl-2-oxo-1,2-dihydroquinoline-3-carboxamide]	8.77
